Reference: patent publication US12673950B2, “Spiros and related analogs for inhibiting YAP/TAZ-TEAD” (THE KATHOLIEKE UNIVERSITEIT LEUVEN, priority 2021, dated 2026)

Assays:
Type in all cases: cell-based
NCI-H2052 = test: Mesothelioma cell line proliferation assay (ATPlite), NCI-H2052; conditions: Homo sapiens, 144 h; NCI-H2052 mesothelioma cells, 6 days incubation, ATPlite cell viability
Procedure: (§1) Mesothelioma cell lines, NCI-H226 and NCI-H2052 (all sourced from the ATCC cell culture collection) are plated in 96-well plates (Corning® 96 Well White Polystyrene Microplate clear flat bottom, white polystyrene (TC-Treated)), at 1500 cells/well in full medium (RPMI 1640 ATCC modification with L-glutamine, HEPES, Phenol Red, Sodium Pyruvate, High glucose, Low sodium bicarbonate and 10% fetal bovine serum). Cells are incubated overnight at 37° C. in an incubator with 5% CO2. Then compounds, dissolved in DMSO, are added in dose-response. Cells are incubated with compound dilutions for another 6 days at 37° C. in an incubator with 5% CO2. Cell viability is quantitated using the ATPlite kit (Perkin-Elmer) and the luminescence is read-out using an Envision instrument (Perkin-Elmer). The amount of relative light units produced using the ATPlite kit is used to calculated percent of inhibition.
(§2) The activities of some example compounds are depicted in Table 4. The activity ranges A, B and C refer to EC50 values in the mesothelioma cell line proliferation assay as described as follows: “A”: EC50<1 μM; “B”: 1 μM≤EC50≤10 μM and “C”: EC50>10 μM; NT: not tested.

NCI-H226 = test: Mesothelioma cell line proliferation assay (ATPlite), NCI-H226; conditions: Homo sapiens, 144 h; NCI-H226 mesothelioma cells, 6 days incubation, ATPlite cell viability
Procedure: as §1, §2

[1] = system: YAP/TAZ-TEAD transcription; test: Reporter gene assay for measuring the inhibition of YAP/TAZ-TEAD transcription (TEAD-responsive element luciferase reporter in Hek293T cells); conditions: Hek293T cells transfected with TEAD-responsive luciferase reporter, 24 hours incubation
Procedure: Hek293T cells are cultured in DMEM supplemented with 10% fetal bovine serum, Sodium pyruvate, Sodium bicarbonate, L-glutamine. The cells are harvested and transiently transfected with TEAD-responsive element luciferase reporter. Transfected cells are plated in 384-wells plate containing pre-diluted compounds. After 24 hours incubation at 37° C./5% CO2, assay plates were cooled down to RT and levelled to an equal volume per well, prior to the addition of 25 uL luciferase substrate SteadyLite (Perkin Elmer)/well. The plate was shaken for 10 min at 600 rpm, centrifuged for 1 min at 500 rpm and measured with an Envision reader (PerkinElmer). The amount of relative light units produced by the TEAD reporter is used to calculated percent of inhibition.
The percent of reporter inhibition was calculated in the presence of a positive control inhibitor (100% inhibition) versus a condition with the presence of the vehicle basal activity of the reporter (0% inhibition). The ability of a test compound to inhibit this activity was determined as: Percentage inhibition=[1−((RLU determined in the presence of vehicle−RLU determined for sample with test compound present) divided by (RLU determined in the presence of vehicle−RLU determined for sample with positive control inhibitor))]*100
The activities of example compounds tested are depicted in Table 3. The activity ranges A, B and C refer to IC50 values in the reporter gene assay as follows: “A”: IC50<1 μM; “B”: 1 μM≤IC50≤20 μM and “C”: IC50>20 μM; NT=not tested.

| Structure (SMILES) | EC50 (NCI-H2052) [nM] | EC50 (NCI-H226) [nM] | IC50 ([1]; Homo sapiens, HEK-293T, 24 h) [nM] | IC50 [1] [nM] |
| --- | --- | --- | --- | --- |
| C=CC(=O)N1CCC2(Cc3ccccc3N(c3ccc(C(F)(F)F)cc3)C2)C1 (racemic) [Cpd. No. 003, 1-(1′-(4-(trifluoromethyl)phenyl)-1′,4′-dihydro-2′H-spiro[pyrrolidine-3,3′-quinolin]-1-yl)prop-2-en-1-one] | < 1000 | < 1000 | < 1000 |  |
| C=CC(=O)N1CCC2(Cc3ccccc3N(c3ccc(C(F)(F)F)cc3)C2)C1 (single isomer, unassigned) [Cpd. No. 003-En1, (R)- or (S)-1-(1′-(4-(trifluoromethyl)phenyl)-1′,4′-dihydro-2′H-spiro[pyrrolidine-3,3′-quinolin]-1-yl)prop-2-en-1-one] |  |  |  | < 1000 |
| C=CC(=O)N1CCC2(Cc3ccccc3N(c3ccc(C(F)(F)F)cc3)C2)C1 (single isomer, unassigned) [Cpd. No. 003-En2, (R)- or (S)-1-(1′-(4-(trifluoromethyl)phenyl)-1′,4′-dihydro-2′H-spiro[pyrrolidine-3,3′-quinolin]-1-yl)prop-2-en-1-one] | < 1000 | < 1000 | < 1000 |  |
| CCC(=O)N1CCC2(Cc3ccccc3N(c3ccc(C(F)(F)F)cc3)C2)C1 (single isomer, unassigned) [Cpd. No. 004-En1, (R)- or (S)-1-(1′-(4-(trifluoromethyl)phenyl)-1′,4′-dihydro-2′H-spiro[pyrrolidine-3,3′-quinolin]-1-yl)propan-1-one] |  |  |  | > 20000 |
| CCC(=O)N1CCC2(Cc3ccccc3N(c3ccc(C(F)(F)F)cc3)C2)C1 (single isomer, unassigned) [Cpd. No. 004-En2, (R)- or (S)-1-(1′-(4-(trifluoromethyl)phenyl)-1′,4′-dihydro-2′H-spiro[pyrrolidine-3,3′-quinolin]-1-yl)propan-1-one] |  |  |  | 1000 to 20000 |
| CS(=O)(=O)N1CCC2(Cc3ccccc3N(c3ccc(C(F)(F)F)cc3)C2)C1 (single isomer, unassigned) [Cpd. No. 005-En1, (R)- or (S)-1-(methylsulfonyl)-1′-(4-(trifluoromethyl)phenyl)-1′,4′-dihydro-2′H-spiro[pyrrolidine-3,3′-quinoline]] |  |  |  | > 20000 |
| CS(=O)(=O)N1CCC2(Cc3ccccc3N(c3ccc(C(F)(F)F)cc3)C2)C1 (single isomer, unassigned) [Cpd. No. 005-En2, (R)- or (S)-1-(methylsulfonyl)-1′-(4-(trifluoromethyl)phenyl)-1′,4′-dihydro-2′H-spiro[pyrrolidine-3,3′-quinoline]] | < 1000 | < 1000 |  | < 1000 |
| C=CC(=O)N1CCC2(CC1)Cc1ccccc1N(c1ccc(C(F)(F)F)cc1)C2=O [Cpd. No. 001, 1-acryloyl-1′-(4-(trifluoromethyl)phenyl)-1′,4′-dihydro-2′H-spiro[piperidine-4,3′-quinolin]-2′-one] |  |  | < 1000 |  |
| C=CC(=O)N1CCC2(CC1)Cc1ccccc1N(c1ccc(C(F)(F)F)cc1)C2 [Cpd. No. 002, 1-(1′-(4-(trifluoromethyl)phenyl)-1′,4′-dihydro-2′H-spiro[piperidine-4,3′-quinolin]-1-yl)prop-2-en-1-one] | 1000 to 10000 | < 1000 | < 1000 |  |
| C=CC(=O)N1CC2(Cc3ccccc3N(c3ccc(C(F)(F)F)cc3)C2)C1 [Cpd. No. 006, 1-(1′-(4-(trifluoromethyl)phenyl)-1′,4′-dihydro-2′H-spiro[azetidine-3,3′-quinolin]-1-yl)prop-2-en-1-one] | < 1000 | < 1000 | < 1000 |  |
| CCC(=O)N1CC2(Cc3ccccc3N(c3ccc(C(F)(F)F)cc3)C2)C1 [Cpd. No. 007, 1-(1′-(4-(trifluoromethyl)phenyl)-1′,4′-dihydro-2′H-spiro[azetidine-3,3′-quinolin]-1-yl)propan-1-one] |  |  | > 20000 |  |
| CC(NC(=O)N1CCC2(Cc3ccccc3N(c3ccc(C(F)(F)F)cc3)C2)C1)c1ccccn1 (stereo not shown) [Cpd. No. 008, N-[1-(2-pyridyl)ethyl]-1-[4-(trifluoromethyl)phenyl]spiro[2,4-dihydroquinoline-3,3′-pyrrolidine]-1′-carboxamide] |  |  | 1000 to 20000 |  |
| C=CC(=O)N1CCC2(Cc3cc(C(F)(F)F)ccc3N(c3ccc(C(F)(F)F)cc3)C2)C1 (stereo not shown) [Cpd. No. 009, 1-[6-(trifluoromethyl)-1-[4-(trifluoromethyl)phenyl]spiro[2,4-dihydroquinoline-3,3′-pyrrolidine]-1′-yl]prop-2-en-1-one] |  |  | < 1000 |  |
| CC(=O)N1CCC2(Cc3cc(C(F)(F)F)ccc3N(c3ccc(C(F)(F)F)cc3)C2)C1 (stereo not shown) [Cpd. No. 010, 1-[6-(trifluoromethyl)-1-[4-(trifluoromethyl)phenyl]spiro[2,4-dihydroquinoline-3,3′-pyrrolidine]-1′-yl]ethanone] |  |  | > 20000 |  |
| CS(=O)(=O)N1CCC2(Cc3cc(C(F)(F)F)ccc3N(c3ccc(C(F)(F)F)cc3)C2)C1 (stereo not shown) [Cpd. No. 011, 1′-methylsulfonyl-6-(trifluoromethyl)-1-[4-(trifluoromethyl)phenyl]spiro[2,4-dihydroquinoline-3,3′-pyrrolidine]] |  |  | < 1000 |  |
